Experiment [1] addresses Cyclin-dependent kinase 5/CDK5 activator 1 (Homo sapiens, UniProt Q00535). Nature of the experiment: blockade of human CDK5 activity – biochemical, cherry-picked samples, set 2, dose response (AID 504545).
The target in experiment [2] is T1, Voltage-gated N-type calcium channel alpha-1B subunit/Amyloid beta A4 precursor protein-binding family A member 1 (Homo sapiens, UniProt Q00975+Q02410). In kind it is protein assay.
Experiment [3] concerns the target T1, Voltage-gated N-type calcium channel alpha-1B subunit/Amyloid beta A4 precursor protein-binding family A member 1. In kind it is protein assay. The source holds these as a separate data set.
Experiment [4] in a line: Fluorescence-based cell-based high throughput dose response assay for inhibitors of the interaction of nucleotide-binding oligomerization domain containing 2 (NOD2) and the receptor-interacting serine-threonine kinase 2 (RIPK2). In kind it is functional. To be noted: Homo sapiens.
Experiment [5] concerns the target Luciferin 4-monooxygenase (Photinus pyralis, UniProt P08659). Put plainly: inhibition of purified Photinus pyralis luciferase – biochemical, luminescence, dose response (AID 1891).
Experiment [6] is described as follows: Luminescence Cell-Based Dose Confirmation HTS to Identify Inhibitors of Platelet Dense Granule Release. [Related pubchem assays: 1663 (Primary HTS), 1678 (Summary of Project)]. In kind it is functional.
For a further experiment, the target named is Beta Lactamase (Pseudomonas aeruginosa, UniProt Q932Y6). Nature of the experiment: BLA reporter interference, concentration series – BLA reporter cells, FRET fluorescence, artefact control for NOD2-RIPK2 interaction inhibitor project, dose response (AID 651552). Type of experiment: functional, cell-based.
The next experiment concerns the target Beta-galactosidase (Escherichia coli, UniProt Q8VNN2). Put plainly: detection-enzyme interference by beta-gal modulators – biochemical, E. coli enzyme, set 3, artefact control for CCR6 antagonist project, dose response (AID 504712). In kind it is functional.
A short description of experiment [7]: DRD fibroblast viability loss – cell-based, non-viral oncogenic, luminescence, dose response (AID 1934). In kind it is functional. To be noted: Homo sapiens.
The test system of experiment [8] is BJ. Put plainly: cells. Type of experiment: functional, cell-based. To be noted: Homo sapiens.
Experiment [9] in a line: viability of PTEN-deleted HCT116 cells – cell-based, HCT116 PTEN knockout, dose response (AID 1047).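 Note: HCT116 colon tumor cells with PTEN knocked out; cells exposed to compound for 60 hours before readout; potency for loss of cell viability measured by luminescence.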 In kind it is functional.
Experiment [10] concerns BJ. Nature of the experiment: BJ-TERT fibroblast viability loss – cell-based, RAS-independent, luminescence, dose response (AID 1933). To be noted: Homo sapiens. Type of experiment: functional.
For experiment [11], the target named is Sphingosine 1-phosphate receptor 2 (Homo sapiens, UniProt O95136). Put plainly: Dose Response Cell Based Assay for Antagonists of the S1P2 Receptor. [Related pubchem assays: 856, 736 ]. In kind it is functional.
Chain of Sphingosine 1-phosphate receptor 2 (O95136 whole entry): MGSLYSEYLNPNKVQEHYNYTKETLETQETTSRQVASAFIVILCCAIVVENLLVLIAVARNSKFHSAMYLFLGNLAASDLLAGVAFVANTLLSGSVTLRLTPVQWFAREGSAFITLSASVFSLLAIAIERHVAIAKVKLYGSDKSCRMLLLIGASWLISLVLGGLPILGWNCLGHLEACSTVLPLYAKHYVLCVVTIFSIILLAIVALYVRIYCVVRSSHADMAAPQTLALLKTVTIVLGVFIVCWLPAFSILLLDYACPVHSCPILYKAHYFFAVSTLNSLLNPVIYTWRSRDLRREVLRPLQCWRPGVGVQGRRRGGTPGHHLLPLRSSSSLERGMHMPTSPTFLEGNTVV
Experiment [12] addresses T2, Calpain-2 catalytic subunit (Sus scrofa, UniProt P43367).
T2 sequence (P43367 whole entry): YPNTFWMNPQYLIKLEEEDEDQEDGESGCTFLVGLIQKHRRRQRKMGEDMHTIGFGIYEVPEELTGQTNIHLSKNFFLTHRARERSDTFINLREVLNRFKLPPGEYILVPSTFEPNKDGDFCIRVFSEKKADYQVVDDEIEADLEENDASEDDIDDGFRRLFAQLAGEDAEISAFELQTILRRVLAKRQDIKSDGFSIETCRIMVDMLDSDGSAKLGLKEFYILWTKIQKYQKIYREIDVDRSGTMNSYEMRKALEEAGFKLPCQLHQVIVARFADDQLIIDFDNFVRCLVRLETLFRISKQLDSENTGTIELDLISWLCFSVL
Put plainly: m-calpain protease blockers, concentration series – biochemical, fluorogenic peptide substrate, dose response (AID 1420). Type of experiment: functional.

Experiment [13] is described as follows: viability of HCT116 lacking mutant beta-catenin – cell-based, human colon tumor, dose response (AID 1045).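 Note: HCT116 colon tumor cells with beta catenin knocked out; cells exposed to compound for 60 hours.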 Type of experiment: functional.
The test system of experiment [14] is BJ. Nature of the experiment: BJ-TERT-LT-ST fibroblast viability loss – cell-based, RAS-independent, luminescence, dose response (AID 1935).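 Note: BJ fibroblasts immortalized with TERT plus LT and ST oncogenes.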 In kind it is functional. To be noted: Homo sapiens.
In experiment [15] the target is NACHT, LRR and PYD domains-containing protein 3 (Homo sapiens, UniProt Q96P20). Put plainly: NALP3 inhibitors in yeast, dose response, luminescent (AID 488799). In kind it is functional.
Chain of NACHT, LRR and PYD domains-containing protein 3 (Q96P20 whole entry, the tested form may be a part): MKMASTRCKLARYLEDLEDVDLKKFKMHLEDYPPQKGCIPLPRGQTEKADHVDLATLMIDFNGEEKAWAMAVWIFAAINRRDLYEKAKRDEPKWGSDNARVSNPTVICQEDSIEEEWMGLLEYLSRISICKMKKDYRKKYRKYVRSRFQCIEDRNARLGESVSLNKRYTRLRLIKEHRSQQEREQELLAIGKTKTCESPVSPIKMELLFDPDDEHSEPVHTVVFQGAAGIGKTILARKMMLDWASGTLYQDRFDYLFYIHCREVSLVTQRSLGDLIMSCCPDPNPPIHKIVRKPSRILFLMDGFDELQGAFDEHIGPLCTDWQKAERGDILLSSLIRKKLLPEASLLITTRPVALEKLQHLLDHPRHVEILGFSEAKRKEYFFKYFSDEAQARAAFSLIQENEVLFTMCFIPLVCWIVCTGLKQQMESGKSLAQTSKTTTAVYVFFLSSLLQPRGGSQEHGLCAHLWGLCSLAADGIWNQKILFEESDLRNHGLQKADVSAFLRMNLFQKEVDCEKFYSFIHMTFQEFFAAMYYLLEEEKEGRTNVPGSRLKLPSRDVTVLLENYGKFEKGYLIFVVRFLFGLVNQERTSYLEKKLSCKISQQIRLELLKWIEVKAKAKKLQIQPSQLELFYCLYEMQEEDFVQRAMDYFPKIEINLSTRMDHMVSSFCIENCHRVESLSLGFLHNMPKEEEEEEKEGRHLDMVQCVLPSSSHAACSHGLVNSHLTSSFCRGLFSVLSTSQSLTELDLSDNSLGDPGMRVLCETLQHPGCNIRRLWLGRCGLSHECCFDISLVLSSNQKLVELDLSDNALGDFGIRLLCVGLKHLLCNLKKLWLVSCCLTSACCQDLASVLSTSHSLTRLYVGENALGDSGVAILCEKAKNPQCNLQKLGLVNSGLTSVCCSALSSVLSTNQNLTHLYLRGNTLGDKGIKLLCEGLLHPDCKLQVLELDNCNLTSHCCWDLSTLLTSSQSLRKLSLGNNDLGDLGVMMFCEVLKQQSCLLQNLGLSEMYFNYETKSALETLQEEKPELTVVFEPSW
Experiment [16] in a line: HEK-293T viability loss after treatment – luminescence, T-cell screen hits, cytotoxicity control for TCR NF-kB inhibitor project, dose response (AID 489026).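 Note: cells exposed to compound about 14 hours before the viability readout.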 Type of experiment: functional, cell-based.
Experiment [17] addresses Signal transducer and activator of transcription 3 (Homo sapiens, UniProt P40763). Nature of the experiment: STAT3 activation with BCL3 mRNA and toxicity – cell-based, […], BCL3 qPCR, cytotoxicity, late-stage follow-up, panel member STAT3 Activation (AID 2049).
A further experiment concerns the target Hexokinase (Trypanosoma brucei, UniProt Q38C41). Nature of the experiment: Confirmation assay for inhibitors of Trypanosoma brucei hexokinase 1-Analogue-first series. [Related pubchem assays (depositor defined):AID1430, AID1632, AID2516, AID2560, AID2579, AID2600, AID449725, AID492951]. In kind it is functional.
For another experiment, the target named is Wee1-like protein kinase (Homo sapiens, UniProt P30291). Nature of the experiment: HeLa cell cycle G2/M accumulation – FACS, mechanism study for Wee1 degradation inhibitor project, late-stage follow-up, panel member Wee1 Degradation (AID 2088).
The target in experiment [18] is G2/mitotic-specific cyclin-B1 (Homo sapiens, UniProt P14635). Nature of the experiment: HeLa cell cycle G2/M accumulation – FACS, mechanism study for Wee1 degradation inhibitor project, late-stage follow-up, panel member Cyclin B Degradation (AID 2088).
Experiment [19] concerns the target Heat shock protein HSP 90-alpha (Homo sapiens, UniProt P07900). Type of experiment: functional, organism-based.
The nature of experiment [20]: Cytotoxicity screening for potential Inhibitors of Bacterial Capsule Biogenesis. [Related pubchem assays (depositor defined):AID488970]. Type of experiment: functional.
A short description of experiment [21]: microbe, parasite or virus in culture. In kind it is functional. To be noted: Mycobacterium tuberculosis.

Molecules are shown by their SMILES. Calls of active or inactive are those of the source.

T1 sequence (Q00975 whole entry): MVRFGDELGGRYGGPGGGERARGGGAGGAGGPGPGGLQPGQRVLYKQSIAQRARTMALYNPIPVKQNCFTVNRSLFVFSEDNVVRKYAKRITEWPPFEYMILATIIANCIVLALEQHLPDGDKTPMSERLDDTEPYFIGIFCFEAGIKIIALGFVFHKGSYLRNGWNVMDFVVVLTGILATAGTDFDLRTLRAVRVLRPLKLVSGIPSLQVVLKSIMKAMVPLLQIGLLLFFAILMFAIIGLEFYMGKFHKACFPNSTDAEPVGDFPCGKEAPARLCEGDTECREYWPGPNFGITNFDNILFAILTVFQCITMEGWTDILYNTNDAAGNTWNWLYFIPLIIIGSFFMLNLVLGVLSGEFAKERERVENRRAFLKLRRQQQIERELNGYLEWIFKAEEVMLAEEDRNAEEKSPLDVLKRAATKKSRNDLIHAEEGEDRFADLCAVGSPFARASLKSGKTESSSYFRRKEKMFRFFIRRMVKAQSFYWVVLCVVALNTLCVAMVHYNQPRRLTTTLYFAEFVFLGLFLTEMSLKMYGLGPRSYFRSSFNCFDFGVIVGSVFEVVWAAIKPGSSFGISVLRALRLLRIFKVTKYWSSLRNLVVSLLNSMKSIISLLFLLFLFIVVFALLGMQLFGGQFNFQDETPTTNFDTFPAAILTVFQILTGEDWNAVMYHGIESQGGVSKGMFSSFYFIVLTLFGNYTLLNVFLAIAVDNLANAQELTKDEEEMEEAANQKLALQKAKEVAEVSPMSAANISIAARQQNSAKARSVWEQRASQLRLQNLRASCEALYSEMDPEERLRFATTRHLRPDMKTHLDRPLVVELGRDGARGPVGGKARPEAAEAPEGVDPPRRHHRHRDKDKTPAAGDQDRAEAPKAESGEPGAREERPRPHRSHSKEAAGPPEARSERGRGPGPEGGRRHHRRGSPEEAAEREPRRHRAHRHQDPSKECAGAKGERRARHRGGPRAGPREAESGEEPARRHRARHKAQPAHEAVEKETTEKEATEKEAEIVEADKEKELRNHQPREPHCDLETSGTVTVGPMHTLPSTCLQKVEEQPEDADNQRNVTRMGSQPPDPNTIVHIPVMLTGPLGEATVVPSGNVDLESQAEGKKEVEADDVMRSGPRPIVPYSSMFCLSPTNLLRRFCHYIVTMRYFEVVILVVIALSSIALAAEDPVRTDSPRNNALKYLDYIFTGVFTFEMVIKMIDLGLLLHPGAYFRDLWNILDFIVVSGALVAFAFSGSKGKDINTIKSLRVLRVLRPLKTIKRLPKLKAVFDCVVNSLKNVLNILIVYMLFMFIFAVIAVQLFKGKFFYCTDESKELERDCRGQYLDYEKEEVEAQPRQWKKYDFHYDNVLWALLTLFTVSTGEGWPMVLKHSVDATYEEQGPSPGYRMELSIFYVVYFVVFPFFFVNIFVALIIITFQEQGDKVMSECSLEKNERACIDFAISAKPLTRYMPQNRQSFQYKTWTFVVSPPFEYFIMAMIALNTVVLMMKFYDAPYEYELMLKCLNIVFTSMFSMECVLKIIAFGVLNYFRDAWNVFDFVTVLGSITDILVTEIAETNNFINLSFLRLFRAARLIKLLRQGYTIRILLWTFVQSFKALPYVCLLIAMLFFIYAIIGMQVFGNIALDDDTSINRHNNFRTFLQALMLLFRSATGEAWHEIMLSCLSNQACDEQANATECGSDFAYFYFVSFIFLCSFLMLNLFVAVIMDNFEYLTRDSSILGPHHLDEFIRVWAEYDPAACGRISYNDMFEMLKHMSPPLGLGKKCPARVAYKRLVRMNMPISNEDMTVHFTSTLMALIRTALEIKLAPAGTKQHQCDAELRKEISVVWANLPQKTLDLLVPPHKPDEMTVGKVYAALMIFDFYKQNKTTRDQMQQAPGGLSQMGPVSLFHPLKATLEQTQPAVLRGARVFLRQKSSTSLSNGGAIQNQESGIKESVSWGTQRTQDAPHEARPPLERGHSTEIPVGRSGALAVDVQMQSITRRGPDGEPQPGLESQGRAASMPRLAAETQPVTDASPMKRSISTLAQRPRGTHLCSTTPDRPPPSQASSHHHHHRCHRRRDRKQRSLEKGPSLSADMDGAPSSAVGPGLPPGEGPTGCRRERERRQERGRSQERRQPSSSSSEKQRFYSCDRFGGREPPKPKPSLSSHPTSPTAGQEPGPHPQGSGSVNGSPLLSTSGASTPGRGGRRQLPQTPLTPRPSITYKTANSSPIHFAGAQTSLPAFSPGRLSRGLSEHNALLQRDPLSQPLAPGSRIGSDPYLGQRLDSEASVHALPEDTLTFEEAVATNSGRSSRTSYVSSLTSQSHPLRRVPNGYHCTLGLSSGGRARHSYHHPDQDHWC
T1 sequence (Q02410 whole entry): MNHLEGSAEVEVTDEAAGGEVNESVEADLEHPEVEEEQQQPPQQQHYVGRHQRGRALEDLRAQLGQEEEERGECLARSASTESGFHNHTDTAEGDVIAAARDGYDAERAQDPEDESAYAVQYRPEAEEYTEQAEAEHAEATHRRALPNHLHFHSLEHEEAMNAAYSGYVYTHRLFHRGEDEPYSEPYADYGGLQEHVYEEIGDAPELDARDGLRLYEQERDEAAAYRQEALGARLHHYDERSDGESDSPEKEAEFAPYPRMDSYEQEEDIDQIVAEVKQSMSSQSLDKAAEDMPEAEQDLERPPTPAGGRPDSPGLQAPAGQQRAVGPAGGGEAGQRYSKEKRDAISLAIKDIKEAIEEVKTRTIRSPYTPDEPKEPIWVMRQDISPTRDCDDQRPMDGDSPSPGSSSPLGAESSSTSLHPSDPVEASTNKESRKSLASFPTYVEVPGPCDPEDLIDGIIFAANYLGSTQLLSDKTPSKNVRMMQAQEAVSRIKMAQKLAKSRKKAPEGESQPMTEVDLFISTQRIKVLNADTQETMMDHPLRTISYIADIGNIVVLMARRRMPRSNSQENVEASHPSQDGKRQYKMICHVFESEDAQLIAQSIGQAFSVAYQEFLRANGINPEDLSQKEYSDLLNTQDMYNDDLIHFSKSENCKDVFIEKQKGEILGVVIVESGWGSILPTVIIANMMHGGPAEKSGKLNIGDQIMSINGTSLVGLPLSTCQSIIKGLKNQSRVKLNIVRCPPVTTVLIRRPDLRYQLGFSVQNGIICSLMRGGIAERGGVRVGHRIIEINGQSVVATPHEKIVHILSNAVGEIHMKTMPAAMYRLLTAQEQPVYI
Chain of Luciferin 4-monooxygenase (P08659 whole entry): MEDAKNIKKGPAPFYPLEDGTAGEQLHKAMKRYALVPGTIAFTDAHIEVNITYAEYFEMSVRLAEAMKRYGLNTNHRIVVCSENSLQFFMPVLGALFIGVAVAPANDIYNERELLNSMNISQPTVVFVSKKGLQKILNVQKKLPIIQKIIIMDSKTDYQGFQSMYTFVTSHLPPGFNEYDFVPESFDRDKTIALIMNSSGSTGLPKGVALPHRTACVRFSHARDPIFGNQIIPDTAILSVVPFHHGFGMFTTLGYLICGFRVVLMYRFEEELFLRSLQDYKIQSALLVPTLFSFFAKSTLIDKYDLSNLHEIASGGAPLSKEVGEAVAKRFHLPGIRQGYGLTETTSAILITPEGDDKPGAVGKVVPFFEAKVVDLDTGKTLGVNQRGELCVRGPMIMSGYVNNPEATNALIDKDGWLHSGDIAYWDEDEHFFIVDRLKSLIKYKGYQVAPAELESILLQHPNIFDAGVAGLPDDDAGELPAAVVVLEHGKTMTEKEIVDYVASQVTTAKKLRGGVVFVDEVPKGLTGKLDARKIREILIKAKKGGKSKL

Consider `O=C1NCCCc2c1oc1ccc(O)cc21`, for which the AC50 (commonly the concentration giving half of the maximal activity seen) in experiment [1] was 10.7 µM (active).

As to `O=C1C=C(c2ccccc2)C(=O)N1Nc1ccccc1`, the IC50 (commonly the concentration needed to halve the response being measured) in [2] is 45.8 µM (active); in [3], 20.4 µM (active); in [4] it was 1.68 µM (active); on Beta Lactamase, 18.7 µM (inactive); on Beta-galactosidase it was > 66.6 µM (inactive). Moreover, the EC50 – broadly, the midpoint of the concentration-response curve – in experiment [5] was > 112 µM (not active); in [6], 8.82 µM (active).

In the case of `CCCCCCCCCn1c2c(c(=N)c3c1CCC3)CCC2`, the EC50 in experiment [7] is 3.16 µM (active); in the experiment on BJ [8], 2.07 µM (active); in experiment [9], 0.728 µM (active); with BJ [10], 1.15 µM (active); in experiment [13] it was 0.561 µM (active); with BJ [14], 8.37 µM (inconclusive). The IC50 in experiment [11] is 9.03 µM (active); in [12], 7.18 µM (active); in experiment [15], 9.02 µM (active); in [16], 47.8 µM (inactive).

Consider `COc1ccc(Cl)cc1NC(=O)c1cc(C2CC2)on1`, for which the EC50 in experiment [17] is 0.00455 µM (active).

Regarding `COc1ccc(C(=O)NC(CC(=O)O)c2cccc(Cl)c2)cc1` (stereo not given), on Hexokinase, the IC50 is > 25 µM (inactive).

In the case of `Cc1cc(O)nc(-n2nc(C)cc2NC(=O)c2ccccc2Cl)n1`, the EC50 is > 16.6 µM (active) at Wee1-like protein kinase and > 49.7 µM (inactive) in experiment [18].

Consider `O=C1C2(Cl)C3(Cl)C4(Cl)C(Cl)(Cl)C5(Cl)C3(Cl)C1(Cl)C5(Cl)C24Cl` (stereo not given) [KEPONE], for which the AC50 in [19] was 2.68 µM (active). The values for the CC50 in experiment [20] and in experiment [21] were 8.69 µM (active) and 22.6 µM (active), respectively.

(Values after ChEMBL document CHEMBL1201862, “PubChem BioAssay data set” (2004).)
